Source: patent publication US20080187568A1, “Polymerization with precipitation of proteins for elution in physiological solution” (priority 2007, published 2008)
Like-named read-outs stand apart in the source and are kept apart here.

Legend:
[1] = cited from earlier work
[2] = Solubility / precipitation of the agent in hydrogel precursor solutions
Protocol: (§1) 0.68 grams 4 arm-n-hydroxysuccinimide ester of polyethylene glycol and carboxymethylene-butyric acid, average molecular weight 10000 Daltons (Shearwater 4 arm CM-HBA-NS-10K) is dissolved in 2.82 g 0.01M phosphate buffer at pH 4.0 and is sterile filtered. Solution B is prepared by dissolving 0.025 grams trilysine and 10 mg bovine fibrinogen (purchased from Sigma Chemicals) in 3.47 g 0.1M borate buffer at pH 9.5 with 0.1 mg/mL methylene blue for visualization. 1 ml of solution A and B are mixed to promote condensation polymerization. Trilysine and PEG-NHS ester react to form a crosslinked hydrogel.
(§2) 1.41 grams 4 arm-n-hydroxysuccinimide ester of polyethylene glycol carboxymethylene-butyric acid, average molecular weight 10000 Daltons (Shearwater 4 arm CM-HBA-NS-10K) and 100 mg of Bone Morphogenetic Protein 2 (BMP-2 protein, recombinant, Sigma catalog B3555) are mixed in a solid state as lyophilized powders and are dissolved/suspended in 2.96 ml 0.1 M HCl just prior to use. Solution B is prepared by dissolving 0.06 grams dilysine (purchased from Sigma Chemicals) in 7.2 g 0.1M borate buffer at pH 9.5 with 0.1 mg/mL methylene blue for visualization. 1 ml of solution A and B are mixed to promote condensation polymerization between dilysine and PEG-NHS ester. Dilysine and PEG-NHS ester react to form a crosslinked hydrogel. HCl is neutralized by borate buffer to form a neutral/basic solution medium.
(§3) 1.37 grams 4 arm-n-hydroxysuccinimide ester of polyethylene glycol carboxymethylene-butyric acid, average molecular weight 10000 Daltons (Shearwater 4 arm CM-HBA-NS-10K) is dissolved in 5.64 g 0.01M phosphate buffer at pH 4.0 and is sterile filtered. Solution B is prepared by dissolving 0.050 grams trilysine and 100 mg paclitaxel in 6.94 g 0.1M borate buffer at pH 9.5 with 0.5 mg/mL methylene blue for visualization. […] Trilysine and PEG-NHS ester react to form a crosslinked hydrogel.

[3] = pH 9.5
Protocol: as §1, §2, §3

Compound	solubility at pH 4 [1] [g/L]	solubility at pH 7 [1] [g/L]	solubility at pH 10 [1] [g/L]	further results
COc1c(N2C[C@@H]3CCCN[C@@H]3C2)c(F)cc2c(=O)c(C(=O)O)cn(C3CC3)c12 [Moxifloxacin]	11	0.13	0.14	
CO[C@H]1/C=C/O[C@@]2(C)Oc3c(C)c(O)c4c(O)c(c(/C=N/N5CCN(C)CC5)c(O)c4c3C2=O)NC(=O)/C(C)=C\C=C\[C@H](C)[C@H](O)[C@@H](C)[C@@H](O)[C@@H](C)[C@H](OC(C)=O)[C@@H]1C [Rifampicin, rifampicin]	1.6	0.16	1000	
CC(C)(C)NC[C@H](O)COc1nsnc1N1CCOCC1 [Timolol]	1000	160	2.4	
CC(=O)O[C@H]1C(=O)[C@@]2(C)[C@H]([C@H](OC(=O)c3ccccc3)[C@]3(O)C[C@H](OC(=O)[C@H](O)[C@@H](NC(=O)c4ccccc4)c4ccccc4)C(C)=C1C3(C)C)[C@]1(OC(C)=O)CO[C@@H]1C[C@@H]2O [paclitaxel]				solubility in borate buffer ([2]; 0.1M borate buffer at pH 9.5 (solution B)): insoluble
Cc1c(C)c2c(c(C)c1O)CC[C@@](C)(CCC[C@H](C)CCC[C@H](C)CCCC(C)C)O2 [vitamin E, alpha-Tocopherol]				solubility in borate buffer [3]: insoluble
Fibrinogen				precipitation on mixing with PEG-NHS ester solution ([2]; fibrinogen in trilysine solution mixed with PEG-NHS ester solution): precipitated
